In ChEMBL document CHEMBL1772971, “Novel 18F-labeled benzofuran derivatives with improved properties for positron emission tomography (PET) imaging of β-amyloid plaques in Alzheimer's brains” (J Med Chem, 2011):
One block for each compound: values may come before it. The source made the active and inactive calls. No cut-off for these calls is given here.

Assays:
Brain [1] = experiment: Ratio of drug level in brain after 2 mins to brain after 60 mins in ddY mouse […] at 185 to 370 kBq, iv; type: ADME, organism-based; conditions: in vivo
Blood [2] = experiment: Biodistribution in ddY mouse blood at 185 to 370 kBq, iv after 2 mins by gamma counting; type: ADME, organism-based; conditions: in vivo
Brain [3] = experiment: Biodistribution in ddY mouse brain at 185 to 370 kBq, iv after 2 mins by gamma counting; type: ADME, organism-based; conditions: in vivo
Bone [4] = experiment: Biodistribution in ddY mouse bone at 185 to 370 kBq, iv after 2 mins by gamma counting; type: ADME, organism-based, Bone element; conditions: in vivo
Blood [5] = experiment: Biodistribution in ddY mouse blood at 185 to 370 kBq, iv after 10 mins by gamma counting; type: ADME, organism-based; conditions: in vivo
Brain [6] = experiment: Biodistribution in ddY mouse brain at 185 to 370 kBq, iv after 10 mins by gamma counting; type: ADME, organism-based; conditions: in vivo
Bone [7] = experiment: Biodistribution in ddY mouse bone at 185 to 370 kBq, iv after 10 mins by gamma counting; type: ADME, organism-based, Bone element; conditions: in vivo
Blood [8] = experiment: Biodistribution in ddY mouse blood at 185 to 370 kBq, iv after 30 mins by gamma counting; type: ADME, organism-based; conditions: in vivo, 0.5 h
Brain [9] = experiment: Biodistribution in ddY mouse brain at 185 to 370 kBq, iv after 30 mins by gamma counting; type: ADME, organism-based; conditions: in vivo, 0.5 h
Bone [10] = experiment: Biodistribution in ddY mouse bone at 185 to 370 kBq, iv after 30 mins by gamma counting; type: ADME, organism-based, Bone element; conditions: in vivo, 0.5 h
Blood [11] = experiment: Biodistribution in ddY mouse blood at 185 to 370 kBq, iv after 60 mins by gamma counting; type: ADME, organism-based; conditions: in vivo, 1 h
Brain [12] = experiment: Biodistribution in ddY mouse brain at 185 to 370 kBq, iv after 60 mins by gamma counting; type: ADME, organism-based; conditions: in vivo, 1 h
Bone [13] = experiment: Biodistribution in ddY mouse bone at 185 to 370 kBq, iv after 60 mins by gamma counting; type: ADME, organism-based, Bone element; conditions: in vivo, 1 h
[14] = Displacement of [125I]IMPY from amyloid beta (1 to 42) after 3 hrs by gamma counting
[15] = biological target: Amyloid-beta precursor protein (Homo sapiens) (UniProt P05067); experiment: Binding affinity to beta amyloid plaques in human Alzheimer's disease brain at 444 kBq/50 uL after 1 hr by autoradiography; conditions: tested as the 18F-labelled form
Sequence of Amyloid-beta precursor protein (Homo sapiens) (P05067 whole entry): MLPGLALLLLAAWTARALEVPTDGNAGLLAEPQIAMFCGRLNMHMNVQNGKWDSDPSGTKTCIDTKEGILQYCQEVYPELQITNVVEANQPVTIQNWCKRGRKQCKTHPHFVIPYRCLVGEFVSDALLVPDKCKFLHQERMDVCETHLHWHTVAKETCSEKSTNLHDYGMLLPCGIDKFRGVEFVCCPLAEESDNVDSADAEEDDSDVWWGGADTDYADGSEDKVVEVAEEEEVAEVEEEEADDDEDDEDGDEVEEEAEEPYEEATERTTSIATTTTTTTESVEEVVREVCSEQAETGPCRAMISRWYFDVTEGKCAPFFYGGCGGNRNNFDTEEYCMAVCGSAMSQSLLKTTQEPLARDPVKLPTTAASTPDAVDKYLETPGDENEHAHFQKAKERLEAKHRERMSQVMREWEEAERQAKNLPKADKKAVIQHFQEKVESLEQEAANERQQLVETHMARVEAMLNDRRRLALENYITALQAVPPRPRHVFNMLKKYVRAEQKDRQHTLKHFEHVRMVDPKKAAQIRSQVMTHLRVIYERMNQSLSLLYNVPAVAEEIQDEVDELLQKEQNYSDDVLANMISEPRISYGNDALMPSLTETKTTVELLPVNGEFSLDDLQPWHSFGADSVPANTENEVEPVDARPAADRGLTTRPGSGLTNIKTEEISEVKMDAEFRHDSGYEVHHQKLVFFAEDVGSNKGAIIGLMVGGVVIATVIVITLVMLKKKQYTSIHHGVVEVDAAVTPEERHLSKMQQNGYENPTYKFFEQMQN

Brain [16] = experiment: Biodistribution in Tg2576 transgenic mouse brain at 11.1 MBq, iv after 30 mins by autoradiography; type: ADME, organism-based; conditions: in vivo, 0.5 h
Brain [17] = experiment: Biodistribution in wild type mouse brain at 11.1 MBq, iv after 30 mins by autoradiography; type: ADME, organism-based; conditions: in vivo, 0.5 h
Liver [18] = experiment: Biodistribution in ddY mouse liver at 185 to 370 kBq, iv after 2 mins by gamma counting; type: ADME, organism-based; conditions: in vivo
Kidney [19] = experiment: Biodistribution in ddY mouse kidney at 185 to 370 kBq, iv after 2 mins by gamma counting; type: ADME, organism-based; conditions: in vivo
Intestine [20] = experiment: Biodistribution in ddY mouse intestine at 185 to 370 kBq, iv after 2 mins by gamma counting; type: ADME, organism-based; conditions: in vivo
Spleen [21] = experiment: Biodistribution in ddY mouse spleen at 185 to 370 kBq, iv after 2 mins by gamma counting; type: ADME, organism-based; conditions: in vivo
Lung [22] = experiment: Biodistribution in ddY mouse lung at 185 to 370 kBq, iv after 2 mins by gamma counting; type: ADME, organism-based; conditions: in vivo
Pancreas [23] = experiment: Biodistribution in ddY mouse pancreas at 185 to 370 kBq, iv after 2 mins by gamma counting; type: ADME, organism-based; conditions: in vivo
Heart [24] = experiment: Biodistribution in ddY mouse […] at 185 to 370 kBq, iv after 2 mins by gamma counting; type: ADME, organism-based; conditions: in vivo
Stomach [25] = experiment: Biodistribution in ddY mouse stomach assessed per organ at 185 to 370 kBq, iv after 2 mins by gamma counting; type: ADME, organism-based; conditions: in vivo
Liver [26] = experiment: Biodistribution in ddY mouse liver at 185 to 370 kBq, iv after 10 mins by gamma counting; type: ADME, organism-based; conditions: in vivo
Kidney [27] = experiment: Biodistribution in ddY mouse kidney at 185 to 370 kBq, iv after 10 mins by gamma counting; type: ADME, organism-based; conditions: in vivo
Intestine [28] = experiment: Biodistribution in ddY mouse intestine at 185 to 370 kBq, iv after 10 mins by gamma counting; type: ADME, organism-based; conditions: in vivo
Spleen [29] = experiment: Biodistribution in ddY mouse spleen at 185 to 370 kBq, iv after 10 mins by gamma counting; type: ADME, organism-based; conditions: in vivo
Lung [30] = experiment: Biodistribution in ddY mouse lung at 185 to 370 kBq, iv after 10 mins by gamma counting; type: ADME, organism-based; conditions: in vivo
Pancreas [31] = experiment: Biodistribution in ddY mouse pancreas at 185 to 370 kBq, iv after 10 mins by gamma counting; type: ADME, organism-based; conditions: in vivo
Heart [32] = experiment: Biodistribution in ddY mouse […] at 185 to 370 kBq, iv after 10 mins by gamma counting; type: ADME, organism-based; conditions: in vivo
Stomach [33] = experiment: Biodistribution in ddY mouse stomach assessed per organ at 185 to 370 kBq, iv after 10 mins by gamma counting; type: ADME, organism-based; conditions: in vivo
Liver [34] = experiment: Biodistribution in ddY mouse liver at 185 to 370 kBq, iv after 30 mins by gamma counting; type: ADME, organism-based; conditions: in vivo, 0.5 h
Kidney [35] = experiment: Biodistribution in ddY mouse kidney at 185 to 370 kBq, iv after 30 mins by gamma counting; type: ADME, organism-based; conditions: in vivo, 0.5 h
Intestine [36] = experiment: Biodistribution in ddY mouse intestine at 185 to 370 kBq, iv after 30 mins by gamma counting; type: ADME, organism-based; conditions: in vivo, 0.5 h
Spleen [37] = experiment: Biodistribution in ddY mouse spleen at 185 to 370 kBq, iv after 30 mins by gamma counting; type: ADME, organism-based; conditions: in vivo, 0.5 h
Lung [38] = experiment: Biodistribution in ddY mouse lung at 185 to 370 kBq, iv after 30 mins by gamma counting; type: ADME, organism-based; conditions: in vivo, 0.5 h
Pancreas [39] = experiment: Biodistribution in ddY mouse pancreas at 185 to 370 kBq, iv after 30 mins by gamma counting; type: ADME, organism-based; conditions: in vivo, 0.5 h
Heart [40] = experiment: Biodistribution in ddY mouse […] at 185 to 370 kBq, iv after 30 mins by gamma counting; type: ADME, organism-based; conditions: in vivo, 0.5 h
Stomach [41] = experiment: Biodistribution in ddY mouse stomach assessed per organ at 185 to 370 kBq, iv after 30 mins by gamma counting; type: ADME, organism-based; conditions: in vivo, 0.5 h
Liver [42] = experiment: Biodistribution in ddY mouse liver at 185 to 370 kBq, iv after 60 mins by gamma counting; type: ADME, organism-based; conditions: in vivo, 1 h
Kidney [43] = experiment: Biodistribution in ddY mouse kidney at 185 to 370 kBq, iv after 60 mins by gamma counting; type: ADME, organism-based; conditions: in vivo, 1 h
Intestine [44] = experiment: Biodistribution in ddY mouse intestine at 185 to 370 kBq, iv after 60 mins by gamma counting; type: ADME, organism-based; conditions: in vivo, 1 h
Spleen [45] = experiment: Biodistribution in ddY mouse spleen at 185 to 370 kBq, iv after 60 mins by gamma counting; type: ADME, organism-based; conditions: in vivo, 1 h
Lung [46] = experiment: Biodistribution in ddY mouse lung at 185 to 370 kBq, iv after 60 mins by gamma counting; type: ADME, organism-based; conditions: in vivo, 1 h
Pancreas [47] = experiment: Biodistribution in ddY mouse pancreas at 185 to 370 kBq, iv after 60 mins by gamma counting; type: ADME, organism-based; conditions: in vivo, 1 h
Heart [48] = experiment: Biodistribution in ddY mouse […] at 185 to 370 kBq, iv after 60 mins by gamma counting; type: ADME, organism-based; conditions: in vivo, 1 h
Stomach [49] = experiment: Biodistribution in ddY mouse stomach assessed per organ at 185 to 370 kBq, iv after 60 mins by gamma counting; type: ADME, organism-based; conditions: in vivo, 1 h

Ratio (Brain [1]): 3.8
SMILES: CNc1ccc(/C=C/c2ccc(OCCOCCOCC[18F])nc2)cc1 [FLORBETAPIR F 18]

Ratio (Brain [1]): 2.11
SMILES: CN(C)c1ccc(-c2cc3cc(OCCOCCOCC[18F])ccc3o2)cn1

Drug uptake (Blood [2]): 1.64 % ID/g | Drug uptake (Brain [3]): 2.88 % ID/g | Drug uptake (Bone [4]): 1.19 % ID/g | Drug uptake (Blood [5]): 2.48 % ID/g | Drug uptake (Brain [6]): 5.66 % ID/g | Drug uptake (Bone [7]): 1.76 % ID/g | Drug uptake (Blood [8]): 2.68 % ID/g | Drug uptake (Brain [9]): 3.14 % ID/g | Drug uptake (Bone [10]): 3.63 % ID/g | Drug uptake (Blood [11]): 3.41 % ID/g | Drug uptake (Brain [12]): 2.8 % ID/g | Drug uptake (Bone [13]): 2.74 % ID/g | Ratio (Brain [1]): 1.02
SMILES: CN(C)c1ccc(-c2cc3cc(OCCOCCOCC[18F])ccc3o2)cc1

Ki [14]: 2.41 nM | Activity [15]: Active
SMILES: CNc1ccc(-c2cc3cc(OCCOCCOCCF)ccc3o2)cn1

Drug uptake (Blood [2]): 4.1 % ID/g | Drug uptake (Brain [3]): 8.18 % ID/g | Drug uptake (Bone [4]): 1.57 % ID/g | Drug uptake (Blood [5]): 4.17 % ID/g | Drug uptake (Brain [6]): 6.43 % ID/g | Drug uptake (Bone [7]): 1.98 % ID/g | Drug uptake (Blood [8]): 5.33 % ID/g | Drug uptake (Brain [9]): 4.26 % ID/g | Drug uptake (Bone [10]): 2.07 % ID/g | Drug uptake (Blood [11]): 7.33 % ID/g | Drug uptake (Brain [12]): 3.87 % ID/g | Drug uptake (Bone [13]): 3.3 % ID/g | Ratio (Brain [1]): 2.11 | Drug uptake (Brain [16]): Active | Drug uptake (Brain [17]): Not Active
SMILES: CNc1ccc(-c2cc3cc(OCCOCCOCC[18F])ccc3o2)cc1

Drug uptake (Blood [2]): 4.96 % ID/g | Drug uptake (Brain [3]): 7.38 % ID/g | Drug uptake (Bone [4]): 2.65 % ID/g | Drug uptake (Liver [18]): 16.8 % ID/g | Drug uptake (Kidney [19]): 11.9 % ID/g | Drug uptake (Intestine [20]): 4.24 % ID/g | Drug uptake (Spleen [21]): 2.91 % ID/g | Drug uptake (Lung [22]): 5.68 % ID/g | Drug uptake (Pancreas [23]): 5.14 % ID/g | Drug uptake (Heart [24]): 5.19 % ID/g | Drug uptake (Stomach [25]): 3.73 %ID | Drug uptake (Blood [5]): 3.02 % ID/g | Drug uptake (Brain [6]): 4.86 % ID/g | Drug uptake (Bone [7]): 1.63 % ID/g | Drug uptake (Liver [26]): 17.5 % ID/g | Drug uptake (Kidney [27]): 6.22 % ID/g | Drug uptake (Intestine [28]): 8.39 % ID/g | Drug uptake (Spleen [29]): 2.15 % ID/g | Drug uptake (Lung [30]): 3.12 % ID/g | Drug uptake (Pancreas [31]): 2.68 % ID/g | Drug uptake (Heart [32]): 2.51 % ID/g | Drug uptake (Stomach [33]): 7.55 %ID | Drug uptake (Blood [8]): 2.66 % ID/g | Drug uptake (Brain [9]): 4.03 % ID/g | Drug uptake (Bone [10]): 1.79 % ID/g | Drug uptake (Liver [34]): 19.2 % ID/g | Drug uptake (Kidney [35]): 7.83 % ID/g | Drug uptake (Intestine [36]): 24.1 % ID/g | Drug uptake (Spleen [37]): 3.14 % ID/g | Drug uptake (Lung [38]): 4.34 % ID/g | Drug uptake (Pancreas [39]): 4.91 % ID/g | Drug uptake (Heart [40]): 3.59 % ID/g | Drug uptake (Stomach [41]): 18.8 %ID | Drug uptake (Blood [11]): 2.42 % ID/g | Drug uptake (Brain [12]): 3.15 % ID/g | Drug uptake (Bone [13]): 1.72 % ID/g | Drug uptake (Liver [42]): 8.71 % ID/g | Drug uptake (Kidney [43]): 3.7 % ID/g | Drug uptake (Intestine [44]): 30.9 % ID/g | Drug uptake (Spleen [45]): 2.24 % ID/g | Drug uptake (Lung [46]): 2.88 % ID/g | Drug uptake (Pancreas [47]): 2.55 % ID/g | Drug uptake (Heart [48]): 2.6 % ID/g | Drug uptake (Stomach [49]): 22.5 %ID | Ratio (Brain [1]): 2.34 | Drug uptake (Brain [16]): Active | Drug uptake (Brain [17]): Not Active
SMILES: CNc1ccc(-c2cc3cc(OCCOCCOCC[18F])ccc3o2)cn1
